Test [1] deals with grass carp pituitary cells. Kind of test: qRT-PCR of reproductive hormone genes in pituitary cells. Type of test: cell-based, grass carp (Ctenopharyngodon idellus). As for the experimental part: (§1) The preparation of grass carp pituitary cells was performed as mentioned above. After drug treatment, the total RNA of these cells was isolated by TRIzol reagent and reverse transcribed into cDNA with Hifair™ III 1st Strand cDNA Synthesis Kit. The transcript levels of several anorectic peptides (POMCb, CART2, UTS1, NMBa, NMBb, and Lepr) and reproductive genes (GtHα, LHβ, FSHβ, INHBa, SgII, DRD2) were detected by using an ABI 7500 quantitative real-time PCR (qRT-PCR) system (Biosystems, USA) (information of primers for target genes is listed in Supplementary Table S3 ). In this process, a serial gradient dilution of plasmid DNA of these genes was used as a standard for data calibration. The conditions of qRT-PCR were set to 10 min, 95°C, for pre-degeneration; 15 s, 95°C, for degeneration; 30 s, 55°C–60°C, for annealing; 30 s, 72°C, for extending; and 20 s, 82°C, for signal detection with 40 cycles. Finally, the melt curve obtained through each test was used to verify and check the reliability and specificity of the corresponding qRT-PCR.
(§2) The transcript level was detected using qRT-PCR by ABI 7500 software, while the data calibration of each reaction was performed through standard curves with the dynamic range of 10^5 and correlation coefficient >0.95. The transcript level of β-actin was used as an internal control, and target gene mRNA expression was normalized and calculated as a percentage of the mean value (as “% Ctrl”). Based on merging four to eight replicates (as mean ± SEM), the data were analyzed with a one-way ANOVA to differentiate the significant differences from other treatment experiments. The SPSS Statistics 26.0 software was used to do a Dunnett’s post-hoc test. […] The different letters represent a significant difference at p < 0.05 between groups.
To further verify the reproductive function of GnRHs, time- and dose-dependent tests were performed to detect GnRH2- or GnRH3-regulated GtHα, LHβ, FSHβ, INHBa, SgII, and DRD2 mRNA expression in grass carp pituitary cells. […] In the dose-dependent test, a continuous gradient dilution of GnRH2 (0.1–1,000 nM) or GnRH3 (0.1–1,000 nM) was incubated with grass carp pituitary cells for 24 h.
Figure 5 Regulation of reproductive hormone gene mRNA expression by GnRH2 and GnRH3 in grass carp pituitary cells. (A) Time-course experiment of grass carp GnRH2 (1 μM) and GnRH3 (1 μM) on GtHα, LHβ, FSHβ, INHBa, SgII, and DRD2 mRNA expression in grass carp pituitary cells. (B) Dose dependence of a 24-h treatment with increasing levels of GnRH2 and GnRH3 (0.1–1,000 nM) on GtHα, LHβ, FSHβ, INHBa, SgII, and DRD2 mRNA expression in grass carp pituitary cells. After drug treatment, the pituitary cells were extracted to total RNA, reversed transcribed, and used for RT-PCR to detect the target genes’ mRNA expression. […] The different letters represent a significant difference at p < 0.05 between groups (ANOVA followed by a Dunnett test).
In general terms: Quantitative PCR measures a nucleic acid by following its amplification.

The subject of test [2] is grass carp pituitary cells. Description: qRT-PCR of anorectic genes in pituitary cells. Type of test: cell-based, grass carp (Ctenopharyngodon idellus). The protocol:
as §1, §2
To further verify the functional role of GnRH2 and GnRH3 on feeding regulation, time- and dose-dependent tests were performed to detect the effect of GnRH2 and GnRH3 on anorectic gene (POMCb, CART2, UTS1, NMBa, NMBb, and LEPR) mRNA expression. In the time-course test, the grass carp pituitary cells were incubated by GnRH2 or GnRH3 (1 μM) for 3, 6, 12, and 24 h, respectively. […] In the dose-dependent test, grass carp pituitary cells were incubated by the continuous gradient dilution of GnRH2 or GnRH3 (0.1–1,000 nM) for 24 h.
Figure 9 Regulation of feeding hormone gene mRNA expression by GnRH2 and GnRH3 in grass carp pituitary cells. (A) Time-course experiment of grass carp GnRH2 (1 μM) and GnRH3 (1 μM) on POMCb, CART2, UTS1, NMBa, NMBb, and LEPR mRNA expression in grass carp pituitary cells. (B) Dose dependence of a 24-h treatment with increasing levels of GnRH2 and GnRH3 (0.1–1,000 nM) on POMCb, CART2, UTS1, NMBa, NMBb, and LEPR mRNA expression in grass carp pituitary cells. […]

Another test has as its system zebrafish. Conditions: intracerebroventricular (ICV) injection, ref [38]; cited from earlier work.
Test [3] concerns goldfish. As to conditions: intracerebroventricular (ICV) injection, ref [39]; cited from earlier work.
Test [4] relates to goldfish. The arrangement: method as in PMID 7507838, PMID 8045371. Conditions: ref [34], [35], cited from earlier work.
The next test deals with pituitary. As to conditions: teleost; ref [5], [10]; cited from earlier work. The source says: Subsequently, GnRH2 had been firstly found in chicken so that this variant was also named as chicken GnRH (cGnRH) ([3]). In addition, the third GnRH variant (GnRH3) was an ubiquitous and unique subtype existing in fish ([3]), which was primitively discovered in salmon so that it was named as salmon GnRH (sGnRH) ([4]). Multiple GnRH variants (two or three forms) are present in all teleosts ([5]), but the receptor selectivity a ...

The mark [5] stands for this setting: 1 μM, time-dependent, Figure 5A.

Data on one compound can be found in article PMC9595134, “Novel pituitary actions of GnRH in teleost: The link between reproduction and feeding regulation” (Frontiers in Endocrinology, 2022).

SMILES strings stand for the structures. Where a SMILES comes first, the peptide text is derived from it. [ ]: non-standard residue; d: D form. pGlu = O=C1CC[C@@H](C(=O)O)N1

For the compound `NC(=O)CNC(=O)[C@@H]1CCCN1C(=O)[C@H](Cc1ccc(O)cc1)NC(=O)[C@H](Cc1c[nH]c2ccccc12)NC(=O)CNC(=O)[C@H](Cc1c[nH]cn1)NC(=O)[C@H](CO)NC(=O)[C@H](Cc1c[nH]c2ccccc12)NC(=O)[C@H](Cc1c[nH]cn1)NC(=O)[C@@H]1CCC(=O)N1` [GnRH2] ([pGlu]HWSHGWYPG-NH2), in test [1] (setting [5]), the “effect on DRD2 mRNA expression, time course” value was “inhibit”; the “effect on GtHα, LHβ, FSHβ, INHBa, and SgII mRNA expression, time course” value was “significantly induce”. Moreover, the “effect on DRD2 mRNA expression, dose test” value in test [1] (0.1–1,000 nM (all treated doses), 24 h, Figure 5B) is given as “significantly inhibit”. The “effect on GtHα, LHβ, FSHβ, INHBa, and SgII mRNA expression, dose dependence” value in test [1] (0.1–1,000 nM, 24 h, dose-dependent, Figure 5B) is “significantly induce”. Also, the “effect on POMCb, CART2, UTS1, NMBa, NMBb, and LEPR mRNA expression, time course” value in test [2] (1 μM, 3, 6, 12, and 24 h, time-dependent, Figure 9A) is “significantly induce”. For the same compound, the “effect on POMCb, CART2, UTS1, NMBa, NMBb, and LEPR mRNA expression, dose dependence” value in test [2] (0.1–1,000 nM, 24 h, dose-dependent, Figure 9B) is “significantly induce”. Moreover, the “effect on food intake, zebrafish” value in the test on zebrafish is on record as “significantly decrease food intake”. Moreover, the “effect on food intake, goldfish” value in the test with goldfish [3] is “significantly decrease food intake”. Further, the “LH secretion compared to GnRH3” value with goldfish [4] (sexually mature, pre-spawning fish) was “more robust LH secretion”. Further, the LH-releasing activity result in the test with goldfish [4] (sexually regressed animals) is “no effect”. Further, the “effect on LH and FSH secretion in the pituitary” value in the test with pituitary was “could stimulate”.
